This is an account of results in patent publication US20240316129A1, “Bacteria and Herbal Extract Nutraceutical Blends for Lung Health Maintenance” (The UAB Research Foundation, priority 2021, published 2024).

The subject of one test is C57BL/6 mouse pups. The experiment in a line: In vivo (mouse) dysbiosis model of chronic lung disease, LPS-treated pups.
Another test relates to RSB11. The experiment in a line: Culture growth of probiotic strain RSB11 with herbal extracts or Vitamin D. The format is cell-based, Lactobacillus plantarum. To be noted: number of colonies per plate.
In a further test the test system is RSB12. Briefly: Culture growth of probiotic strain RSB12 with herbal extracts or Vitamin D. The conditions noted are these: number of colonies per plate. It is filed as cell-based, Lactobacillus acidophilus.
The test system of another test is RSB13. Briefly: Culture growth of probiotic strain RSB13 with herbal extracts or Vitamin D. It is filed as cell-based, Lactobacillus rhamnosus. The conditions noted are these: number of colonies per plate.
The subject of test [1] is newborn wild type C57BL/6 mice. Briefly: Loss of function of Ac-PGP by RTR treatment in LPS-treated newborn mice. The conditions noted are these: under noxious stimuli, LPS+RTR compared to LPS alone, P<0.05. It is filed as in vivo, mouse. An excerpt: FIG. 9A illustrates that newborn wild type C57BL/6 mice were randomized to treatment with RTR, LPS, and RTR+LPS as well as normoxia and noxious stimuli.

The next test has as its system mice. The conditions noted are these: normoxia and under noxious stimuli, P<0.05.
Where [2] appears, read: LPS-treated mice compared to controls, P<0.05.

As for lipopolysaccharide [LPS], the lung tissue histology result in the test on C57BL/6 mouse pups (LPS-treated C57BL/6 mouse pups) was “alveolar hypoplasia and simplification”. In the test on C57BL/6 mouse pups (setting [2]), the “myeloperoxidase (MPO) levels in BALF” value is reported as “significantly increased”, the “neutrophil elastase (NE) levels in BALF” value is “significantly increased” and the “radial alveolar counts (RAC)” value was “significantly decreased”. The “Ac-PGP levels in BALF” value in the test on C57BL/6 mouse pups (LPS-treated mice compared to controls, by HPLC, P<0.05) was “significantly increased”.

Turning to Vitamin D, the “culture growth of RSB11” value in the test with RSB11 is listed as “do not have an inhibitory effect”. Besides, in the test on RSB12, the “culture growth of RSB12” value is recorded as “do not have an inhibitory effect”. The “culture growth of RSB13” value in the test on RSB13 is given as “do not have an inhibitory effect”.

For arginine-threonine-arginine [RTR], in test [1], the MPO concentrations result is given as “significantly lower”, the RAC result is recorded as “significantly higher” and the RVH entry is reported as “significantly less severe”.

Regarding “N-acetyl-Proline-Glycine-Proline [Ac-PGP]”, in the test on mice (ELISA), the MPO concentration result is on record as “increased”. In addition, in the test on mice, the “NE concentrations in BALF” value is recorded as “increased”, the RAC counts result is given as “decreased” and the “right ventricular hypertrophy (RVH)” value was “increased”.
